# Like-named read-outs stand apart in the source and are kept apart here.
# Legend:
# Mouse Liver [1] = details: chronic study, ref ToxRefDB, cited from earlier work
# CYP2B6 = assay: CLZD_CYP2B6: Change in expression of CYP2B6 (primary human hepatocytes); format: cell-based; details: 24 hr
# Outline: (§1)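 Chemicals are tested in human hepatocyte primary cultures over 0.004-40 µM (5 concentrations) for 6, 24 or 48 hr, and concentration- and time-dependent transcript changes are read by quantitative nuclease protection assay.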
# Rat Liver [2] = details: chronic study, ref ToxRefDB, cited from earlier work
# Rat Liver [3] = details: chronic study, ref ToxRefDB, cited from earlier work; remark: listed apart in the source
# CYP1A1 = assay: CLZD_CYP1A1: Change in expression of CYP1A1 (primary human hepatocytes); format: cell-based; details: 24 hr
# Outline: as §1
# ABCB1 = assay: CLZD_ABCB1: Change in expression of ABCB1 (primary human hepatocytes); format: cell-based; details: 24 hr
# Description: This is a collection of multiplexed gene expression assays focused on Phase I and II xenobiotic metabolizing enzymes and transporters. Human primary cell cultures were treated with chemicals at 5 concentrations (0.004-40 [drawing 42] M) for 6, 24 and 48 hr. Concentration- and time-response profiles of chemicals were measured by the expression of key nuclear receptor target genes, activities of CYP1A enzymes (EROD), and cell morphology. Fourteen gene targets were monitored by quantitative nuclease protection assay including: six representative cytochrome P-450 genes, four hepatic transporters, three Phase II conjugating enzymes, and one endogenous metabolism gene involved in cholesterol synthesis. The target genes associated with nuclear receptor pathways are as follows: [drawing 43] and [drawing 44] with [drawing 45]; [drawing 46] , [drawing 47] , [drawing 48] , [drawing 49] , [drawing 50] and [drawing 51] with [drawing 52]; [drawing 53] , [drawing 54] , [drawing 55] and [drawing 56] with [drawing 57]; [drawing 58] with [drawing 59]; and [drawing 60] with [drawing 61] . Assays were run in primary human hepatocyte cultures by CellzDirect Invitrogen Inc. (Durham, NC), in collaboration with EPA.
# Multiplexed Gene Expression in Human Primary Hepatocytes: This is a collection of multiplexed gene expression assays focused on Phase I and II metabolic enzymes and transporters. […] Fourteen gene targets were monitored by quantitative nuclease protection assay: six representative cytochrome P450 genes, four hepatic transporters, three Phase II conjugating enzymes, and one endogenous metabolism gene involved in cholesterol synthesis. Cells were exposed at 5 concentrations (0.004-40 µM) for 6, 24 or 48 hr. Gene targets are sentinels for five nuclear receptor signaling pathways: AhR, CAR, PXR, FXR, and PPARα. All gene are associated with nuclear receptor pathways: CYP1A1 and CYP1A2 with AHR; ABCB1, ABCG2, CYP2B6, CYP2C9, CYP2C19 and UGT1A1 with CAR; CYP3A4, GSTA2, SLCO1B1 and SULT2A1 with PXR; HMGCS2 with PPARA; and ABCB11 with FXR. […] Detailed description of the methods, data and analysis methods for this dataset will be presented in a separate publication.
# PXR (NR1I2) [4] = biological target: T1, PXR (NR1I2) (Homo sapiens, UniProt O75469); assay: ATG_PXRE_CIS: Factorial reporter gene assay (HepG2); format: cell-based; parameters: endogenous in cells; host or cells: HepG2
# T1 sequence (O75469 1-434): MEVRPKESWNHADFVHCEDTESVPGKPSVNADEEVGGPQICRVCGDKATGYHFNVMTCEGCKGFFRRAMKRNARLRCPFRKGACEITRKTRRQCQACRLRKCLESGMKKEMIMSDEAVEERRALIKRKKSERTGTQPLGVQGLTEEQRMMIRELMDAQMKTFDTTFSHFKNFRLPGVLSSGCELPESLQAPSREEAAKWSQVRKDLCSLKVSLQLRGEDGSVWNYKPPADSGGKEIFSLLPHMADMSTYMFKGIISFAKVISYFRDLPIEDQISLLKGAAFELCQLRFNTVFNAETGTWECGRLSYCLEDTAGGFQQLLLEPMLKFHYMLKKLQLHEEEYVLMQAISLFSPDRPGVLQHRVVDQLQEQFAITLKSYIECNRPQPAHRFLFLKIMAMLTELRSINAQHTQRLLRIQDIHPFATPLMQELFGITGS
# Outline: (§2)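 Mammalian one-hybrid trans reporters (25 MRTUs) measured ERRg, FXR and PPARg; PXRE used cis reporters from a 48-site MRTU library. Both were run in HepG2. Dosing: seven concentrations, MTC as the highest, three-fold dilution series.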
# Rat Liver [5] = details: chronic study, ref ToxRefDB, cited from earlier work; remark: listed apart in the source
# PXR Human (NR1I2) = biological target: T2, PXR Human (NR1I2) (Homo sapiens, UniProt O75469); assay: NCGC_PXR_Agonist_human: GAL4 BLAM Reporter gene assay: PXR Human; format: cell-based; details: agonist mode
# T2 sequence (O75469 146-434 limits assumed): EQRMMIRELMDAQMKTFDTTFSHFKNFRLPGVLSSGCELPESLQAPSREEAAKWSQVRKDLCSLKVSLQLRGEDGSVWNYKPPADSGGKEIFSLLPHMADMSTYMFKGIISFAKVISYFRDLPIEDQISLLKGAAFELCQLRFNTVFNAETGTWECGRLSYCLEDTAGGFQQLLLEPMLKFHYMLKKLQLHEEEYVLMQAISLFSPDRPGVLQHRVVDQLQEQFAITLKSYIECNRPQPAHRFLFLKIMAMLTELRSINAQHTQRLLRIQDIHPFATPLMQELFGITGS
# Outline: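 Tox21 cell-based screens at NCGC using GAL4-fused receptor beta-lactamase reporters. Responses active only at the top concentration (above 50%) were discarded, and fits needed R^2 of at least 0.5.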
# Mouse Liver [6] = details: chronic study, mouse liver; ref ToxRefDB; cited from earlier work
# Mouse Liver [7] = details: chronic study, mouse liver; ref ToxRefDB; cited from earlier work; remark: listed apart in the source
# PXR (NR1I2) [8] = biological target: T1, PXR (NR1I2); assay: ATG_PXR_TRANS: Factorial reporter gene assay (HepG2); format: cell-based; parameters: endogenous in cells; host or cells: HepG2; details: HepG2 reporter
# Outline: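 Seven concentrations per chemical, three-fold dilutions down from the MTC, were tested in HepG2 hepatoma cells. Those cells carried a multiple reporter transcription unit library, read either as cis transcription-factor-site reporters or as a trans mammalian one-hybrid panel for nuclear receptors.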
# CYP3A4 = assay: CLZD_CYP3A4: Change in expression of CYP3A4 (primary human hepatocytes); format: cell-based; details: 24 hr
# Outline: as §1
# PXR (NR1I2) [9] = biological target: T1, PXR (NR1I2); assay: NVS_NR_hPXR: Human PXR Fluormone PXR (SXR) green (cell-free HTS); format: binding
# Outline: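 Cell-free biochemical binding assays; chemicals first screened at a single concentration of 25 […] M in duplicate wells. Signals normalised to same-plate solvent controls as percent of neutral control, and AC50 values came from Hill-equation fits of concentration-response curves.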
# LXRb (NR1H2) = biological target: T3, LXRb (NR1H2) (Homo sapiens, UniProt P55055); assay: ATG_LXRb_TRANS: Factorial reporter gene assay (HepG2); format: cell-based; details: HepG2 reporter
# T3 construct: expressed in transfected cells; host or cells: HepG2
# T3 sequence (P55055 1-460): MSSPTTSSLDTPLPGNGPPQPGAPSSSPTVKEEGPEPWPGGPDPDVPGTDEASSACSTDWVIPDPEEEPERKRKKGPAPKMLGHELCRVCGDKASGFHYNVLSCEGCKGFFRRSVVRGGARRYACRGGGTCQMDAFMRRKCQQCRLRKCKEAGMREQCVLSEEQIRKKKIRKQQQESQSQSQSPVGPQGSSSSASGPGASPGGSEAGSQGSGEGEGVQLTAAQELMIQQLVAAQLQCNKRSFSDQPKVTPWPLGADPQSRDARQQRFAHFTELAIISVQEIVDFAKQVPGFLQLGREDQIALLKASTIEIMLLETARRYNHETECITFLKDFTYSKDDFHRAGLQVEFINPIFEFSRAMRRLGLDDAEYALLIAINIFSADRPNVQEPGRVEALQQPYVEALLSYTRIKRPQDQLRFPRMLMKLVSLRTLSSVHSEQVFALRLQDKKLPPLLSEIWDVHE
# Description: A multiple reporter transcription unit (MRTU) library consisting of 48 transcription factor binding sites was transfected into the HepG2 human liver hepatoma cell line. In addition to the cis-acting reporter genes (CIS), a modification of the approach was used to generate a trans-system (TRANS) with a mammalian one-hybrid assay consisting of an additional 25 MRTU library reporting the activity of nuclear receptor super-family members. […] These assays were performed by Attagene Inc. (Morrisville NC) under contract to EPA.
# In addition to the cis-acting reporter genes (CIS), a modification of the approach was used to generate a trans-system (TRANS) with a mammalian one-hybrid assay consisting of an additional 25 MRTU library reporting the activity of nuclear receptor super-family members. […] Chemicals were then tested in the CIS and TRANS assays at seven concentrations starting at the MTC and followed by three-fold serial dilutions. These assays were performed by Attagene Inc. (Morrisville NC) under contract to EPA. Detailed description of the methods, data and analysis methods for this dataset will be presented in a separate publication.
# CYP1A2 = assay: CLZD_CYP1A2: Change in expression of CYP1A2 (primary human hepatocytes); format: cell-based; details: 24 hr
# Outline: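 Primary human hepatocyte cultures were exposed to test chemicals at 5 concentrations (0.004-40 µM) for 6, 24 or 48 hr.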
# [10] = biological target: T4, PPARG (peroxisome proliferator-activated receptor gamma) (Homo sapiens, UniProt P37231); assay: ATG_PPARg_TRANS: Factorial reporter gene assay (HepG2); format: cell-based; details: HepG2 reporter
# T4 construct: expressed in transfected cells; host or cells: HepG2
# T4 sequence (P37231 1-505): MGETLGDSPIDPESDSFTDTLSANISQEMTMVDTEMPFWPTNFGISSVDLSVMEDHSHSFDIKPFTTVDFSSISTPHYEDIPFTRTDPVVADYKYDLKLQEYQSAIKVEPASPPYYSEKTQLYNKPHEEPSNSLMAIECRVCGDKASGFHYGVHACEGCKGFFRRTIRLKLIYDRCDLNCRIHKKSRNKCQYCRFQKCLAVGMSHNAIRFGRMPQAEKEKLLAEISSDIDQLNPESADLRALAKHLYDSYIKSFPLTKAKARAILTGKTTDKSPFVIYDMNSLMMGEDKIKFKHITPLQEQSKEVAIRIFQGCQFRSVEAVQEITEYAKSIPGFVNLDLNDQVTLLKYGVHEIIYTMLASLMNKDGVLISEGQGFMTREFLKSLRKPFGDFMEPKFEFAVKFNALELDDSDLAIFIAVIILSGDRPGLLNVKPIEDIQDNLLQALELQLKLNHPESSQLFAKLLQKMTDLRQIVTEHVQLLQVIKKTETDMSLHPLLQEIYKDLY
# Outline: as §2
SMILES,CLZD_CYP2B6_24 (CYP2B6),CLZD_CYP1A1_24 (CYP1A1),CLZD_ABCB1_24 (ABCB1),CHR_Mouse_Liver_2_PreneoplasticLesion (Mouse Liver [6]),CHR_Mouse_Liver_1_AnyLesion (Mouse Liver [1]; mouse liver),CHR_Mouse_Liver_3_NeoplasticLesion (Mouse Liver [7]),CHR_Rat_Liver_3_NeoplasticLesion (Rat Liver [2]; rat liver),CHR_Rat_Liver_2_PreneoplasticLesion (Rat Liver [3]; rat liver),CHR_Rat_Liver_1_AnyLesion (Rat Liver [5]; rat liver),ATG_LXRb_TRANS (LXRb (NR1H2)),other results
CC(C)(C)[C@H](O)[C@H](Cc1ccc(Cl)cc1)n1cncn1 [r235],5.403,5.242,5.316,,,,,,,,CHR_Mouse_Liver_1_AnyLesion (Mouse Liver [1]; mouse): 6; CHR_Rat_Liver_3_NeoplasticLesion (Rat Liver [2]; rat): 0; CHR_Rat_Liver_2_PreneoplasticLesion (Rat Liver [3]; rat): 0; ATG_PXRE_CIS (PXR (NR1I2) [4]; HepG2): 4.824; CHR_Rat_Liver_1_AnyLesion (Rat Liver [5]; rat): 6
C#CC(C)(C)NC(=O)c1cc(Cl)cc(Cl)c1 [r265],5.253,,5.227,6,6,6,0,0,6,,NCGC_PXR_Agonist_human (PXR Human (NR1I2)): 4.619; ATG_PXR_TRANS (PXR (NR1I2) [8]): 4.409; CLZD_CYP3A4_24 (CYP3A4): 4.621; NVS_NR_hPXR (PXR (NR1I2) [9]): 4.411; ATG_PXRE_CIS (PXR (NR1I2) [4]; HepG2 reporter): 4.824
Cc1cc(C)nc(Nc2ccccc2)n1 [r273],5.27,4.775,,,,,0,6,6,4.237,CLZD_CYP1A2_24 (CYP1A2): 4.839; ATG_PPARg_TRANS [10]: 4.137
CC/C(=N\OC/C=C/Cl)C1=C(O)CC(C2CCOCC2)CC1=O (stereo not drawn) [r295],,,,6,6,6,6,6,6,4.194,
Cc1[nH]c(=O)n(C(C)(C)C)c(=O)c1Cl [r296],5.239,5.327,,6,6,6,,,,4.119,
